Molecular target: T1, Urotensin-2 receptor (Rattus norvegicus, UniProt P49684)
T1 sequence (P49684 whole entry): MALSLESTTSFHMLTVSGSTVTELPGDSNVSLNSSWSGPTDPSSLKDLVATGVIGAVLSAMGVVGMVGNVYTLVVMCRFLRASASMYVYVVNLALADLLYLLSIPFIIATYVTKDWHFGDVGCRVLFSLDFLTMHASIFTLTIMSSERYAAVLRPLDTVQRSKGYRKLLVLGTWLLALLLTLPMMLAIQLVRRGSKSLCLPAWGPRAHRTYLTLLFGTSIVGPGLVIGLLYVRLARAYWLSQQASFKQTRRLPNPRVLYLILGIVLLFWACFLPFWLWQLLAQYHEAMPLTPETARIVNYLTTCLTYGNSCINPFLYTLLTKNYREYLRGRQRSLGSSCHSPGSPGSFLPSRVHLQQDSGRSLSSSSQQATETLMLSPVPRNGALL

SMILES: Cc1cc(NC(=O)NCCN2CCC(O)(Cc3ccccc3)CC2)c2ccccc2n1 [ACT-058362]
- Ki: 1.47 µM
